According to ChEMBL document CHEMBL5143523, “Construction and activity evaluation of novel benzodioxane derivatives as dual-target antifungal inhibitors” (Eur J Med Chem, 2022):
pIC50: −log10 of the molar value. In brackets after ≈: the same amount, converted by molar mass. Activity calls are given as the source filed them. No cut-off for these calls is given here.

What was measured:
[1] = system: Candida albicans; experiment: Antifungal activity against Candida albicans ATCC 10231 assessed as fungal growth inhibition measured after 72 hrs by CLSI protocol based liquid medium dilution method; format: functional
[2] = system: Pichia kudriavzevii; experiment: Antifungal activity against Candida krusei ATCC 6258 assessed as fungal growth inhibition measured after 72 hrs by CLSI protocol based liquid medium dilution method; format: functional
[3] = system: Nakaseomyces glabratus; experiment: Antifungal activity against Candida glabrata ATCC 0001 assessed as fungal growth inhibition measured after 72 hrs by CLSI protocol based liquid medium dilution method; format: functional
[4] = system: Candida tropicalis; experiment: Antifungal activity against Candida tropicalis ATCC 1369 assessed as fungal growth inhibition measured after 72 hrs by CLSI protocol based liquid medium dilution method; format: functional
[5] = system: Aspergillus fumigatus; experiment: Antifungal activity against Aspergillus fumigatus KM8001 assessed as fungal growth inhibition measured after 72 hrs by CLSI protocol based liquid medium dilution method; format: functional
[6] = system: Candida albicans; experiment: Antifungal activity against fluconazole resistant Candida albicans strain 17# assessed as fungal growth inhibition measured after 72 hrs by CLSI protocol based liquid medium dilution method; format: functional
[7] = system: Candida albicans; experiment: Antifungal activity against fluconazole resistant Candida albicans strain CaR assessed as fungal growth inhibition measured after 72 hrs by CLSI protocol based liquid medium dilution method; format: functional
[8] = system: Candida albicans; experiment: Antifungal activity against fluconazole resistant Candida albicans strain 103 assessed as fungal growth inhibition measured after 72 hrs by CLSI protocol based liquid medium dilution method; format: functional
[9] = system: Candida albicans; experiment: Antifungal activity against fluconazole resistant Candida albicans strain 901 assessed as fungal growth inhibition measured after 72 hrs by CLSI protocol based liquid medium dilution method; format: functional
[10] = system: Candida albicans; experiment: Antifungal activity against fluconazole resistant Candida albicans strain 904 assessed as fungal growth inhibition measured after 72 hrs by CLSI protocol based liquid medium dilution method; format: functional
[11] = system: Candida albicans; experiment: Induction of apoptosis in Candida albicans ATCC SC5314 cells assessed as live cells at 8 ug/ml incubated for 72 hrs by Annexin V-FITC/PI staining based flow cytometry method (reference value: 95.56%); format: functional; settings: dose 8 µg/ml
[12] = system: Candida albicans; experiment: Induction of apoptosis in Candida albicans ATCC SC5314 cells assessed as early apoptotic cells at 8 ug/ml incubated for 72 hrs by Annexin V-FITC/PI staining based flow cytometry method (reference value: 0.56%); format: functional; settings: dose 8 µg/ml
[13] = system: Candida albicans; experiment: Induction of apoptosis in Candida albicans ATCC SC5314 cells assessed as necrotic cells at 8 ug/ml incubated for 72 hrs by Annexin V-FITC/PI staining based flow cytometry method (reference value: 3.76%); format: functional; settings: dose 8 µg/ml
[14] = system: Candida albicans; experiment: Induction of apoptosis in Candida albicans ATCC SC5314 cells assessed as late apoptotic cells at 8 ug/ml incubated for 72 hrs by Annexin V-FITC/PI staining based flow cytometry method (reference value: 0.12%); format: functional; settings: dose 8 µg/ml
[15] = system: Candida albicans; experiment: Antifungal activity against Candida albicans ATCC SC5314 assessed as decrease in ergosterol content at 4 ug/ml incubated for 48 hrs by LC-MS analysis (reference value: 90.6%); format: functional; set-up: scale not given: the % may be the effect or the level left; settings: dose 4 µg/ml
[16] = system: Candida albicans; experiment: Antifungal activity against Candida albicans ATCC SC5314 assessed as change in squalene level at 4 ug/ml incubated for 48 hrs by LC-MS analysis; format: functional; settings: dose 4 µg/ml
[17] = system: Candida albicans; experiment: Antifungal activity against Candida albicans ATCC SC5314 assessed as change in lanosterol level at 4 ug/ml incubated for 48 hrs by LC-MS analysis (reference value: 3.7%); format: functional; settings: dose 4 µg/ml
[18] = system: Candida albicans; experiment: Antifungal activity against Candida albicans ATCC SC5314 assessed as change in eburicol level at 4 ug/ml incubated for 48 hrs by LC-MS analysis (reference value: 1.4%); format: functional; settings: dose 4 µg/ml
[19] = system: Candida albicans; experiment: Antifungal activity against Candida albicans ATCC SC5314 assessed as change in unknown sterol level at 4 ug/ml incubated for 48 hrs by LC-MS analysis (reference value: 4.3%); format: functional; settings: dose 4 µg/ml
[20] = target: Lanosterol 14-alpha demethylase (Candida albicans (strain SC5314 / ATCC MYA-2876) (Yeast), UniProt P10613); experiment: Inhibition of CYP51 in Candida albicans ATCC SC5314 incubated for 30 mins using eburicol as substrate in presence of NADPH by HPLC analysis
[21] = Drug uptake in fluconazole resistant Candida albicans strain 901 in presence of naftifine by fluorescence microscopy; format: ADME
[22] = system: Candida albicans; experiment: Antifungal activity against fluconazole resistant Candida albicans strain 901 assessed as decrease in fungal cell density in presence naftifine of by fluorescence microscopy; format: functional, organism-based
[23] = system: Candida albicans; experiment: Antifungal activity against fluconazole resistant Candida albicans strain 17# assessed as fungal growth inhibition measured after 72 hrs in presence of naftifine by CLSI protocol based liquid medium dilution method; format: functional
[24] = system: Candida albicans; experiment: Antifungal activity against fluconazole resistant Candida albicans strain CaR assessed as fungal growth inhibition measured after 72 hrs in presence of naftifine by CLSI protocol based liquid medium dilution method; format: functional
[25] = system: Candida albicans; experiment: Antifungal activity against fluconazole resistant Candida albicans strain 103 assessed as fungal growth inhibition measured after 72 hrs in presence of naftifine by CLSI protocol based liquid medium dilution method; format: functional
[26] = system: Candida albicans; experiment: Antifungal activity against fluconazole resistant Candida albicans strain 901 assessed as fungal growth inhibition measured after 72 hrs in presence of naftifine by CLSI protocol based liquid medium dilution method; format: functional
[27] = system: Candida albicans; experiment: Antifungal activity against fluconazole resistant Candida albicans strain 904 assessed as fungal growth inhibition measured after 72 hrs in presence of naftifine by CLSI protocol based liquid medium dilution method; format: functional
[28] = system: Candida albicans; experiment: Antifungal activity against Candida albicans assessed as fungal growth inhibition measured after 72 hrs by CLSI protocol based liquid medium dilution method; format: functional

Lanosterol 14-alpha demethylase, sequence (P10613 whole entry): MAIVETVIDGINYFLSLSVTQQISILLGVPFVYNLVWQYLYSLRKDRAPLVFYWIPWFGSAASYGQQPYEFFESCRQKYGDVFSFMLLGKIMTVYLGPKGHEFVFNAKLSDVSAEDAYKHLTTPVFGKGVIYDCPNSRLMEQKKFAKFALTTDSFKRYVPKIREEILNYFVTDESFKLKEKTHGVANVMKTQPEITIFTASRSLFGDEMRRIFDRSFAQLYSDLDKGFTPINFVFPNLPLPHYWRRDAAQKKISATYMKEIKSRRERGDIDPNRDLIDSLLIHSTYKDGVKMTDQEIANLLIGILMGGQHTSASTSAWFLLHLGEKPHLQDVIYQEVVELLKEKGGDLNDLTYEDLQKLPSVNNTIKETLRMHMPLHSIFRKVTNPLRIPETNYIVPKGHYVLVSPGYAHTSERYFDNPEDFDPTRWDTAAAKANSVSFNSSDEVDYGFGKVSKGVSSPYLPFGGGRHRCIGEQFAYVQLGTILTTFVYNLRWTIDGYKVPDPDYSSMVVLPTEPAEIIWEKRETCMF

Structure (SMILES)	MIC50 [1]	MIC50 [2]	MIC50 [3]	MIC50 [4]	MIC50 [5]	MIC50 [6]	MIC50 [7]	MIC50 [8]	MIC50 [9]	MIC50 [10]	further results
OC(Cn1cncn1)(Cn1cncn1)c1ccc(F)cc1F [FLUCONAZOLE]	0.25 µg/mL (≈ 0.816 µM)	0.5 µg/mL (≈ 1.63 µM)	0.25 µg/mL (≈ 0.816 µM)	0.5 µg/mL (≈ 1.63 µM)	> 8 µg/mL	> 8 µg/mL	> 8 µg/mL	> 8 µg/mL	> 8 µg/mL	> 8 µg/mL	Activity [11]: 76.56%; Activity [12]: 1.83%; Activity [13]: 18.59%; Activity [14]: 3.02%; Activity [15]: 29.5%; Activity [16]: 2.7%; Activity [17]: 21.6%; Activity [18]: 40.6%; Activity [19]: 5.6%; pIC50 [20]: 6.83
Clc1ccc(COC(Cn2ccnc2)c2ccc(Cl)cc2Cl)c(Cl)c1 (stereo not drawn) [MICONAZOLE]											Drug uptake [21]: Active; Activity [22]: Active; MIC50 [23]: 1 µg/mL; MIC50 [24]: 1 µg/mL; MIC50 [25]: 2 µg/mL; MIC50 [26]: 2 µg/mL; MIC50 [27]: 1 µg/mL
CCC(C)[C@H](NC(=O)c1ccc2c(c1)OCCO2)C(=O)N[C@@H](Cn1ccnc1)c1ccccc1 (stereo partly drawn)	0.125 µg/mL (≈ 0.27 µM)	0.25 µg/mL (≈ 0.54 µM)	0.125 µg/mL (≈ 0.27 µM)	0.5 µg/mL (≈ 1.08 µM)	2 µg/mL (≈ 4.32 µM)	2 µg/mL (≈ 4.32 µM)	2 µg/mL (≈ 4.32 µM)	1 µg/mL (≈ 2.16 µM)	2 µg/mL (≈ 4.32 µM)	4 µg/mL (≈ 8.65 µM)	
CC(C)[C@H](NC(=O)c1cccc2c1OCCO2)C(=O)Nc1ccncc1	0.5 µg/mL (≈ 1.41 µM)	1 µg/mL (≈ 2.81 µM)	0.5 µg/mL (≈ 1.41 µM)	0.5 µg/mL (≈ 1.41 µM)	4 µg/mL (≈ 11.3 µM)						MIC50 [28]: 0.5 µg/mL (≈ 1.41 µM)
